In patent US6448204B1, “Herbicidal 2-aryloxy-4-methyl-6-pyrazol-1-yl-pyridines” (BASF Aktiengesellschaft, priority 1999, dated 2002):

Columns and labels:
Assay type in all cases: in vivo
[1] = test system: Galium aparine (GALAP); assay: Pre-emergence test; settings: 3 weeks after treatment
Experimental: (§1) To evaluate their herbicidal activity, compounds according to the invention are tested using a representative range of plants: […] The pre-emergence tests involve spraying a liquid formulation of the compound onto the soil in which the seeds of the plant species mentioned above has recently been sown. The soil used in the tests is a prepared horticultural loam. […] In these tests untreated sown soil are used as controls.

[2] = test system: Stellaria media (STEME); assay: Pre-emergence test; settings: 3 weeks after treatment
Experimental: as §1

[3] = test system: thirteen weed species (broadleaf weeds and grasses); assay: Pre-emergence test, summary over all weeds; settings: for Number of weed species well / sufficiently controlled: out of thirteen species
Experimental: as §1

[4] = test system: Abutilon theophrasti (ABUTH); assay: Post-emergence test; settings: 2-4 weeks after treatment
Experimental: (§2) To evaluate their herbicidal activity, compounds according to the invention are tested using a representative range of plants:
(§3) These acetone solutions are diluted with water and the resulting formulations applied at dosage levels equivalent of about 0.025 to 0.4 kg per hectare of test compound per pot. After spraying the plants are placed on greenhouse benches and are cared for in the usual manner, commensurate with conventional greenhouse practices. From 2 to 4 weeks after treatment, the seedling plants are examined and rated according to the rating system provided above.

[5] = test system: Digitaria sanguinalis (DIGSA); assay: Post-emergence test; settings: 2-4 weeks after treatment
Experimental: as §2, §3

[6] = test system: Alopecurus myosuroides (ALOMY); assay: Post-emergence test; settings: 2-4 weeks after treatment
Experimental: as §2, §3

[7] = test system: Ipomoea hederacea (IPOHE); assay: Post-emergence test; settings: 2-4 weeks after treatment
Experimental: as §2, §3

[8] = test system: Setaria viridis (SETVI); assay: Post-emergence test; settings: 2-4 weeks after treatment
Experimental: as §2, §3

[9] = test system: Matricaria inodora (MATIN); assay: Post-emergence test; settings: 2-4 weeks after treatment
Experimental: as §2, §3

[10] = test system: Cassia obtusifolia (CASOB); assay: Post-emergence test; settings: 2-4 weeks after treatment
Experimental: as §2, §3

[11] = test system: Echinochloa crus-galli (ECHCG); assay: Post-emergence test; settings: 2-4 weeks after treatment
Experimental: as §2, §3

[12] = test system: Ambrosia artemisifolia (AMBEL); assay: Post-emergence test; settings: 2-4 weeks after treatment
Experimental: as §2, §3

[13] = test system: Lolium multiflorum (LOLMU); assay: Post-emergence test; settings: 2-4 weeks after treatment
Experimental: as §2, §3

[14] = test system: Lamium purpureum (LAMPU); assay: Post-emergence test; settings: 2-4 weeks after treatment
Experimental: as §2, §3

[15] = test system: Galium aparine (GALAP); assay: Post-emergence test; settings: 2-4 weeks after treatment
Experimental: as §2, §3

[16] = test system: Stellaria media (STEME); assay: Post-emergence test; settings: 2-4 weeks after treatment
Experimental: as §2, §3

Cn1nc(C(F)(F)F)cc1Oc1cccc(-n2ccc(C(F)(F)F)n2)n1 [Comparison]
Assessment rating GALAP (pre-emergence application) ([1]; 0.025 kg/ha): 1 (1 - Trace effect)
Assessment rating GALAP (pre-emergence application) ([1]; 0.100 kg/ha): 2 (2 - Slight effect)
Assessment rating GALAP (pre-emergence application) ([1]; 0.400 kg/ha): 8 (8 - Approaching complete kill)
Assessment rating STEME (pre-emergence application) ([2]; 0.013 kg/ha): 0 (0 - No effect)
Assessment rating STEME (pre-emergence application) ([2]; 0.025 kg/ha): 8 (8 - Approaching complete kill)
Assessment rating STEME (pre-emergence application) ([2]; 0.100 kg/ha): 8 (8 - Approaching complete kill)
Assessment rating STEME (pre-emergence application) ([2]; 0.400 kg/ha): 9 (9 - Complete kill)
Active ingredient required for maize selective weed control relative to the compound of the invention [3]: four times more active ingredient
Herbicidal activity, overall judgement [3]: clearly inferior in activity
Rate required to obtain the same level of weed control [3]: 0.400 kg/ha
Number of weed species well / sufficiently controlled ([3]; 0.100 kg/ha): six out of thirteen species
Number of weed species well / sufficiently controlled ([3]; 0.400 kg/ha): ten
Rating ABUTH (post-emergence application) ([4]; 0.025 kg/ha): 3 (3 - Moderate effect)
Rating ABUTH (post-emergence application) ([4]; 0.100 kg/ha): 6 (6 - Herbicidal effect)
Rating ABUTH (post-emergence application) ([4]; 0.400 kg/ha): 8 (8 - Approaching complete kill)
Rating DIGSA (post-emergence application) ([5]; 0.025 kg/ha): 3 (3 - Moderate effect)
Rating DIGSA (post-emergence application) ([5]; 0.100 kg/ha): 6 (6 - Herbicidal effect)
Rating DIGSA (post-emergence application) ([5]; 0.400 kg/ha): 8 (8 - Approaching complete kill)
Rating ALOMY (post-emergence application) ([6]; 0.025 kg/ha): 2 (2 - Slight effect)
Rating ALOMY (post-emergence application) ([6]; 0.100 kg/ha): 4 (4 - Injury)
Rating ALOMY (post-emergence application) ([6]; 0.400 kg/ha): 8 (8 - Approaching complete kill)
Rating IPOHE (post-emergence application) ([7]; 0.025 kg/ha): 5 (5 - Definite injury)
Rating IPOHE (post-emergence application) ([7]; 0.100 kg/ha): 9 (9 - Complete kill)
Rating IPOHE (post-emergence application) ([7]; 0.400 kg/ha): 9 (9 - Complete kill)
Rating SETVI (post-emergence application) ([8]; 0.025 kg/ha): 3 (3 - Moderate effect)
Rating SETVI (post-emergence application) ([8]; 0.100 kg/ha): 6 (6 - Herbicidal effect)
Rating SETVI (post-emergence application) ([8]; 0.400 kg/ha): 8 (8 - Approaching complete kill)
Rating MATIN (post-emergence application) ([9]; 0.025 kg/ha): 4 (4 - Injury)
Rating MATIN (post-emergence application) ([9]; 0.100 kg/ha): 6 (6 - Herbicidal effect)
Rating MATIN (post-emergence application) ([9]; 0.400 kg/ha): 8 (8 - Approaching complete kill)
Rating CASOB (post-emergence application) ([10]; 0.025 kg/ha): 9 (9 - Complete kill)
Rating CASOB (post-emergence application) ([10]; 0.100 kg/ha): 9 (9 - Complete kill)
Rating CASOB (post-emergence application) ([10]; 0.400 kg/ha): 9 (9 - Complete kill)
Rating ECHCG (post-emergence application) ([11]; 0.025 kg/ha): 4 (4 - Injury)
Rating ECHCG (post-emergence application) ([11]; 0.100 kg/ha): 7 (7 - Good herbicidal effect)
Rating ECHCG (post-emergence application) ([11]; 0.400 kg/ha): 9 (9 - Complete kill)
Rating AMBEL (post-emergence application) ([12]; 0.025 kg/ha): 2 (2 - Slight effect)
Rating AMBEL (post-emergence application) ([12]; 0.100 kg/ha): 6 (6 - Herbicidal effect)
Rating AMBEL (post-emergence application) ([12]; 0.400 kg/ha): 8 (8 - Approaching complete kill)
Rating LOLMU (post-emergence application) ([13]; 0.025 kg/ha): 4 (4 - Injury)
Rating LOLMU (post-emergence application) ([13]; 0.100 kg/ha): 7 (7 - Good herbicidal effect)
Rating LOLMU (post-emergence application) ([13]; 0.400 kg/ha): 9 (9 - Complete kill)
Rating LAMPU (post-emergence application) ([14]; 0.025 kg/ha): 7 (7 - Good herbicidal effect)
Rating LAMPU (post-emergence application) ([14]; 0.100 kg/ha): 9 (9 - Complete kill)
Rating LAMPU (post-emergence application) ([14]; 0.400 kg/ha): 9 (9 - Complete kill)
Rating GALAP (post-emergence application) ([15]; 0.025 kg/ha): 4 (4 - Injury)
Rating GALAP (post-emergence application) ([15]; 0.100 kg/ha): 6 (6 - Herbicidal effect)
Rating GALAP (post-emergence application) ([15]; 0.400 kg/ha): 8 (8 - Approaching complete kill)
Rating STEME (post-emergence application) ([16]; 0.025 kg/ha): 7 (7 - Good herbicidal effect)
Rating STEME (post-emergence application) ([16]; 0.100 kg/ha): 9 (9 - Complete kill)
Rating STEME (post-emergence application) ([16]; 0.400 kg/ha): 9 (9 - Complete kill)
